Measured values published in PubChem BioAssay AID248 (DTP/NCI, 2004).
Several values for one entry are separate records, joined by “and”; a condition that tells them apart may be missing. Identical values can stand only once. Inconclusive results and toxic doses are left out. Rule as the data show it: active = T/C of 150% or more; inactive = T/C below 125%.

System: L1210 leukemia ip in BDF1 mice, survival T/C
Assay: NCI In Vivo Anticancer Drug Screen. Data for tumor model L1210 Leukemia (intraperitoneal) in B6D2F1 (BDF1) mice
Settings: endpoint: mean survival time, higher = longer survival
In short: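 Mice bearing the transplanted tumor received compound or vehicle. Survival of the treated group was divided by that of the vehicle-treated control group to give the ratio.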

[1] = dose: 100.0 mg/kg/injection, schedule: Q01DX009 (ip), vehicle: saline
[2] = dose: 200.0 mg/kg/injection, schedule: Q01DX009 (ip), vehicle: saline
[3] = dose: 400.0 mg/kg/injection, schedule: Q01DX009 (ip), vehicle: saline
[4] = dose: 100.0 mg/kg/injection, schedule: Q04DX003 (ip), vehicle: saline with Tween-80
[5] = dose: 200.0 mg/kg/injection, schedule: Q04DX003 (ip), vehicle: saline with Tween-80
[6] = dose: 400.0 mg/kg/injection, schedule: Q04DX003 (ip), vehicle: saline with Tween-80

Measured: T/C

CCC(Cc1ccccc1Br)C1=NC(C)(C)CO1 (configuration not stated)
inactive: [1] 90 % of control | dose: 100.0 mg/kg/injection, schedule: Q04DX003 (ip), vehicle: saline 105 % of control | [2] 90 % of control | dose: 200.0 mg/kg/injection, schedule: Q04DX003 (ip), vehicle: saline 107 % of control | [3] 106 % of control | dose: 400.0 mg/kg/injection, schedule: Q04DX003 (ip), vehicle: saline 100 % of control

COc1ccc(OC)c(NC(=O)Nc2ccc(OC)cc2OC)c1
inactive: [1] 110 % of control | [2] 113 % of control | [3] 108 % of control

CCN1C(=O)CC(=O)N(CC)C1=S
inactive: dose: 50.0 mg/kg/injection, schedule: Q01DX009 (ip), vehicle: Klucel (hydroxypropylcellulose) (HPC) 103 % of control | dose: 100.0 mg/kg/injection, schedule: Q01DX009 (ip), vehicle: Klucel (hydroxypropylcellulose) (HPC) 101 % of control | dose: 100.0 mg/kg/injection, schedule: Q04DX003 (ip), vehicle: Klucel (hydroxypropylcellulose) (HPC) 94 % of control | dose: 200.0 mg/kg/injection, schedule: Q01DX009 (ip), vehicle: Klucel (hydroxypropylcellulose) (HPC) 97 % of control | dose: 200.0 mg/kg/injection, schedule: Q04DX003 (ip), vehicle: Klucel (hydroxypropylcellulose) (HPC) 89 % of control

CCOC(=O)c1c(C)cc(O)cc1O
inactive: dose: 100.0 mg/kg/injection, schedule: Q01DX009 (ip), vehicle: saline with Tween-80 114 % of control | dose: 200.0 mg/kg/injection, schedule: Q01DX009 (ip), vehicle: saline with Tween-80 106 % of control | dose: 400.0 mg/kg/injection, schedule: Q01DX009 (ip), vehicle: saline with Tween-80 102 % of control

Cc1c(C=NCCNCCN=Cc2[nH]c(=S)[nH]c(=O)c2C)[nH]c(=S)[nH]c1=O
inactive: dose: 44.0 mg/kg/injection, schedule: Q04DX003 (ip), vehicle: saline with Tween-80 97 % of control and 98 % of control | dose: 66.0 mg/kg/injection, schedule: Q04DX003 (ip), vehicle: saline with Tween-80 106 % of control and 108 % of control | [4] 103 % of control and 110 % of control | dose: 150.0 mg/kg/injection, schedule: Q04DX003 (ip), vehicle: saline with Tween-80 98 % of control and 104 % of control | [5] 110 % of control | [6] 104 % of control

CCOC(=O)Cc1cc(=O)c2cc(OC)ccc2[nH]1
inactive: dose: 75.0 mg/kg/injection, schedule: Q01DX001 (ip), vehicle: saline 107 % of control | dose: 75.0 mg/kg/injection, schedule: Q04DX003 (ip), vehicle: saline 105 % of control | dose: 150.0 mg/kg/injection, schedule: Q01DX001 (ip), vehicle: saline 91 % of control | dose: 150.0 mg/kg/injection, schedule: Q04DX003 (ip), vehicle: saline 100 % of control | dose: 300.0 mg/kg/injection, schedule: Q01DX001 (ip), vehicle: saline 94 % of control | dose: 300.0 mg/kg/injection, schedule: Q04DX003 (ip), vehicle: saline 103 % of control

CC1=NC(=NC(=O)c2ccccc2)N=C1
inactive: [4] 97 % of control | [5] 96 % of control | [6] 96 % of control
